According to patent US20240342138A1, “MICROTUBULE TARGETING AGENTS” (BPGbio, Inc., priority 2023, published 2024):

What was measured:
Format in all cases: cell-based
A-172 cells = experiment: In vitro potency in glioblastoma cells, ATPlite 1Step (NTRC Oncolines); conditions: Homo sapiens, FIG. 14A, read-out: In vitro potency (anti-cancer activity)
Description: (§1) FIG. 14A-14E show the efficacy of Compound 1 in glioblastoma cell lines in vitro and in a glioblastoma rat model (C6). A) In vitro potency of Compound 1 in four different glioblastoma cell lines as evaluated by Realtime-Glo™ assay (C6, and U87 cells) or ATPlite 1Step™ Perkin Elmer (performed by NTRC Oncolines; T98G and A-172 cells). B) Study design overview: C6 rat glioma cells (3×10^5) were implanted into the right entorhinal cortex/subiculum region of male Sprague Dawley rats and tumor burden was assessed 14 days post inoculation using MRI and animals randomized into […] (4) groups (vehicle control, 5 mg/kg, 10 mg/kg, and 20 mg/kg Compound 1) with 4 animals per group. […] C) Body weights were measured every two days. […]
(§2) Glioblastoma (GBM) is the most common and highly malignant form of primary brain tumor with a poor prognosis despite advances in treatments. […] Accordingly, the in vitro potency of Compound 1 was examined in four different glioblastoma cell lines as evaluated by Realtime-Glo™ assay (C6, and U87 cells) or ATPlite 1Step™ Perkin Elmer (performed by NTRC Oncolines; T98G and A-172 cells). […] Therefore, the in vivo tumor activity of Compound 1 was next assessed in Sprague Dawley rats implanted with C6 rat glioma cells into the right entorhinal cortex/subiculum region (AP: −7 mm; ML: 4.5 mm, DV: 5 mm). […]

T98G cells = experiment: as above; conditions: Homo sapiens, FIG. 14A, read-out: In vitro potency (anti-cancer activity)
Description: as §1, §2

COLO205 cells = experiment: In vitro potency, ATPlite 1Step (NTRC Oncolines); conditions: Homo sapiens, COLO 205
Procedure: FIG. 11A-11E show the efficacy of Compound 1 in a colorectal cancer xenograft model (COLO205). A) In vitro potency of Compound 1 in COLO205 cells as evaluated by ATPlite 1Step™ Perkin Elmer (performed by NTRC Oncolines). B) COLO205 cells were implanted subcutaneously in nude mice and tumors were allowed to grow to a volume of 210 mm3 followed by randomization of animals into three (3) groups (vehicle control, 75 mg/kg, 150 mg/kg Compound 1) with 12 animals per group. A Compound 1 solid dispersion was prepared prior to each dosing and administered by oral gavage two times a day (BID). Mean tumor volume of each group over time and the growth of tumor in each individual animal was graphed. For each individual animal of […] group TGI (%) was calculated based on the tumor growth inhibition of individual tumor at each given day of the study compared to the average of the group for that given day of the study. P-values were calculated using two-tailed distribution and two-sample equal variance (homoscedastic) for each group treated with Compound 1 for each given day of the study in reference to vehicle control. […] The level of two biomarkers, pHH3 and CCNB1 in each tissue was measured and graphed as the Min-to-Max plot and scatter plot of the level of each biomarker. […] E) Body weight of each individual animal was measured on each day of the study and graphed using Graphpad Prism. […]

## COc1ccccc1-c1nc(CNC(=O)c2ccccc2OC(F)F)n[nH]1 [Compound 1, 2-(difluoromethoxy)-N-[[5-(2-methoxyphenyl)-1H-1,2,4-triazol-3-yl]methyl]benzamide]
A-172 cells
  IC50: 48 nM
T98G cells
  IC50: 39 nM
COLO205 cells; COLO205
  IC50: 67 nM
COLO205 cells; COLO205, in vitro, read-out: Maximum effect (%)
  Emax: 95%
